{
  "source": "patent US20220168301A1",
  "about": "“METHODS FOR TREATING SYMPTOMATIC ORTHOSTATIC HYPOTENSION” (Cerecor Inc, priority 2019, published 2022)",
  "assay_type_in_all_cases": "in vivo, human",
  "key": {"[1]": {"test_system": "patients with symptomatic nOH associated with Parkinson's disease", "assay": "Safety and tolerability of single doses in patients with nOH associated with Parkinson's disease", "description": "This study was designed as a randomized, double-blind, placebo-controlled trial in order to distinguish effects of active treatment in an efficient and unbiased manner. As CERC-301 had not previously been tested in subjects with symptomatic OH, a single escalating dose study design was used to ensure safety of the study participants.\n(§1) Subjects were dosed on five separate occasions, approximately 7-10 days apart, with one of four single escalating doses of CERC-301 or placebo and underwent an orthostatic challenge test to assess the safety, tolerability, effect on blood pressure, and PK. Subjects also completed a symptomatic assessment following the orthostatic challenge. Subjects were enrolled and randomized based on the dosing schedule in Table 4:\nAEs were monitored and the following information recorded: • Verbatim complaint • Whether the event was treatment-emergent (TEAE) • Whether event was serious (SAE) • Date of onset • Severity of event • Relationship of event to study drug • Action taken regarding study drug due to the event • Clinical outcome of event (resolved or ongoing) • If resolved, provide date of resolution\nThe following vital signs were measured during the study: • Blood pressure (systolic and diastolic [mm Hg]) • Heart rate (beats per minute [bpm]) • Oral body temperature (°C)\nTwo analysis sets were used. […] The SAF consists of all randomized subjects who receive at least one dose of study medication. […] The PKAS consists of all subjects from the SAF for whom sufficient plasma concentration data are available to facilitate the calculation of at least one PK parameter.\nAll safety and tolerability data are summarized using descriptive statistics. They are listed and summarized in tabular and/or graphical form. […] Descriptive statistics for laboratory values and their change or shift from baseline for each dose group are provided for each scheduled time of collection. Descriptive statistics for vital signs and their change from baseline for each dose group are provided for each scheduled time of collection. The placebo subjects are combined into a single placebo group for summary presentations."}, "healthy subjects": {"test_system": "healthy subjects", "assay": "Safety and tolerability over 7 days of once-daily administration in healthy subjects", "description": "The study was a randomized, double-blind, placebo-controlled parallel-group, three-part, repeated dose in-patient study investigating the safety, tolerability, PK, and PD of CERC-301 in healthy subjects.\nSubjects received 8, 12, 16 or 20 mg CERC-301 or matching placebo once-daily for 7 days.\nThe safety variables evaluated included treatment-emergent adverse events (TEAE), vital signs, clinical safety laboratories (chemistry, hematology, urinalysis), electrocardiograms (ECGs), physical examinations, Clinician Administered Dissociated States Scale (CADSS) and Columbia-Suicide Severity Rating Scale (C-SSRS)."}, "[2]": {"assay": "Plasma pharmacokinetics of single escalating doses in patients with symptomatic nOH associated with Parkinson's disease", "details": "for Cmax / AUC: human, plasma, oral; for AUC: 6-hour PK collection period, read-out: Area Under the Curve (AUC)", "description": "as §1\nInvestigational product was administered as CERC-301 4 mg tablets and matching placebo. Study drug was administered orally (P.O) with water approximately 1.5 hours after the patient consumed breakfast.\nPK samples were drawn pre-dose and at 0.5, 1, 2, 4 and 6 hours post-dose. All blood draws were done after blood pressure measures are taken.\nBlood samples for plasma concentration analysis of CERC-301 were collected at pre-dose and 0.5, 1, 2, 4 and 6 hours post-dose at all visits.\nBlood sampling, processing, storage, and shipping instructions were provided in the Laboratory Manual. The plasma samples were analyzed via liquid chromatography tandem mass spectrometry (LC-MS/MS) following a validated method.\nPK parameter estimates for CERC 301 were calculated using standard non-compartmental methods of analysis."}, "[3]": {"details": "whole study, active and placebo not separated"}},
  "note": "Like-named read-outs stand apart in the source and are kept apart here.",
  "data": [
    {"smiles": "Cc1ccc(COC(=O)N2CC[C@H](CNc3ncccn3)[C@H](F)C2)cc1", "note": "[CERC-301]", "values": [
      {"measurement": "Safety and tolerability", "setting": "[1]; single doses of 8, 12, 16 and 20 mg", "value": "safe and well tolerated"},
      {"measurement": "Signals of increased heart rate or supine hypertension during the recumbent phase of the OST, active versus placebo", "setting": "[1]; single doses of 8 to 20 mg", "value": "No signals of increased heart rate or, supine hypertension"},
      {"measurement": "SAEs", "setting": "[1]; whole study", "value": "No SAEs were reported"},
      {"measurement": "AE reported: blurred vision", "setting": "[1]; [3]", "value": 14.3, "unit": "%"},
      {"measurement": "AE reported: dizziness", "setting": "[1]; [3]", "value": 7.1, "unit": "%"},
      {"measurement": "AE reported: fall", "setting": "[1]; [3]", "value": 14.3, "unit": "%"},
      {"measurement": "AE reported: hypoaesthesia", "setting": "[1]; [3]", "value": 7.1, "unit": "%"},
      {"measurement": "AE reported: hypotension", "setting": "[1]; [3]", "value": 7.1, "unit": "%"},
      {"measurement": "AE reported: memory impairment", "setting": "[1]; [3]", "value": 7.1, "unit": "%"},
      {"measurement": "AE reported: nasal congestion", "setting": "[1]; [3]", "value": 7.1, "unit": "%"},
      {"measurement": "AE reported: on/off phenomenon", "setting": "[1]; [3]", "value": 7.1, "unit": "%"},
      {"measurement": "AE reported: somnolence", "setting": "[1]; [3]", "value": 7.1, "unit": "%"},
      {"measurement": "AE reported: squamous cell carcinoma", "setting": "[1]; [3]", "value": 7.1, "unit": "%"},
      {"measurement": "Changes in vital signs, ECGs or physical examination attributable to CERC-301", "setting": "healthy subjects; 8 to 20 mg for 7 days", "value": "no clinically significant adverse changes"},
      {"measurement": "Dose-related or age-related differences in TEAEs or related AEs", "setting": "healthy subjects; 8 to 20 mg for 7 days", "value": "no clear-cut dose-related or age-related differences"},
      {"measurement": "Most common related AEs (each in at least two subjects receiving CERC-301)", "setting": "healthy subjects; 8 to 20 mg for 7 days", "value": "feeling abnormal, headache, feeling of relaxation, elevated mood, dizziness, logorrhea, sedation, visual impairment, energy increased, palpitations, disturbance in attention, hypervigilance, confusional state, oral paresthesia, anxiety, chest pain, depressed mood, diarrhea, and balance disorder"},
      {"measurement": "Laboratory abnormalities attributable to CERC-301", "setting": "healthy subjects; except ALT/AST increases in one elderly and elevated prolactin in one young, both 12 mg", "value": "no clinically significant laboratory abnormalities"},
      {"measurement": "Tolerability", "setting": "healthy subjects; repeated daily doses of 8, 12, 16 and 20 mg for 7 days", "value": "generally well tolerated"},
      {"measurement": "Cmax dose proportionality", "setting": "[2]; 8 to 20 mg single doses (FIG. 2)", "value": "generally dose proportional"},
      {"measurement": "Tmax", "setting": "[2]; all dosing groups (8, 12, 16, 20 mg single dose P.O.)", "value": "approximately 2 hours post dose"},
      {"measurement": "Cmax", "setting": "[2]; 8 mg single dose", "value": 108, "unit": "ng/mL"},
      {"measurement": "AUC", "setting": "[2]; 8 mg single dose", "value": 473, "unit": "ng·h/mL"},
      {"measurement": "Cmax", "setting": "[2]; 12 mg single dose", "value": 161, "unit": "ng/mL"},
      {"measurement": "AUC", "setting": "[2]; 12 mg single dose", "value": 795, "unit": "ng·h/mL"},
      {"measurement": "Cmax", "setting": "[2]; 16 mg single dose", "value": 187, "unit": "ng/mL"},
      {"measurement": "AUC", "setting": "[2]; 16 mg single dose", "value": 954, "unit": "ng·h/mL"},
      {"measurement": "Cmax", "setting": "[2]; 20 mg single dose", "value": 266, "unit": "ng/mL"},
      {"measurement": "AUC", "setting": "[2]; 20 mg single dose", "value": 1240, "unit": "ng·h/mL"}
    ]}
  ]
}
